Values joined by “and” are separate entries in the source; they are usually repeats but may differ in a detail not shown here. Equal values may be shown once.
Experiments:
Type in all cases: in vivo
adjuvant arthritis (AA) [1] = test: Adjuvant arthritis (AA) in Lewis rats, inhibition of inflammation; settings: for % Inhibition (100 μl) of the inflammation of adjuvant arthritis: 100 μl SC once, 14 days before induction of AA or on day 12 after induction, day of maximal inflammation
Procedure: AA was induced by immunizing inbred 8-10-week old Lewis rats (Harlan-Olac Limited, Blackthorn, Oxon, UK), at the base of the tail with 1 mg/0.1 ml of killed Mycobacterium tuberculosis (Sigma) in IFA (Sigma) as described (Pearson, 1956). Arthritis of the limbs was noted to develop 12-14 days later and was scored on a scale of 0-16 summing the severity of the inflammation of each of the 4 limbs on a scale of 0-4, as described (Holoshitz et al., 1983). The peak of the arthritis usually was observed around day 26 after immunization.
Control rats were untreated or treated by injections of saline. A positive control of immunosuppression was obtained by including a group of rats treated with the corticosteroid agent dexamethasone (200 μg) administered intraperitoneally every other day beginning on day 12 after induction.
The immunomodulator of the invention (100 μl oleyl alcohol, glycerol mono-oleate, linolenyl alcohol or cetyl alcohol) was administered subcutaneously (SC) once 14 days before induction of AA or on day 12 after induction of AA. The percent inhibition of inflammation measured on the day of maximal inflammation was computed as follows: [formula] […]

adjuvant arthritis (AA) [2] = test: as above; settings: for suppression of inflammation on day of peak disease: day 26
[3] = tested on: experimental autoimmune encephalomyelitis (EAE); test: Experimental autoimmune encephalomyelitis (EAE) in Lewis rats; settings: 0.5 ml/kg SC once, 14 days before EAE induction
[4] = vs non-treated control, listed as OA

Structure (SMILES): CCCCCCCCCCCCCCCCO [Cetyl alcohol, cetyl alcohol]
- % Inhibition (100 μl) of the inflammation of adjuvant arthritis (adjuvant arthritis (AA) [1]): 66%

Structure (SMILES): CCCCCCCC/C=C\CCCCCCCC(=O)OCC(O)CO (stereo not drawn) [Glycerol mono-oleate, glycerol monooleate]
- % Inhibition (100 μl) of the inflammation of adjuvant arthritis (adjuvant arthritis (AA) [1]): 98%

Structure (SMILES): CCC=CCC=CC/C=C\CCCCCCCCO [Linolenyl alcohol, cis-9,12,15-octadecatrienol]
- % Inhibition (100 μl) of the inflammation of adjuvant arthritis (adjuvant arthritis (AA) [1]): 75%

Structure (SMILES): CCCCCCCC/C=C\CCCCCCCCO [Oleyl alcohol, cis-9-octadecenol]
- suppression of inflammation on day of peak disease (adjuvant arthritis (AA) [2]; 10 μl SC once 14 days before induction): 14%
- suppression of inflammation on day of peak disease (adjuvant arthritis (AA) [2]; 50 μl SC once 14 days before induction): 61%
- suppression of inflammation on day of peak disease (adjuvant arthritis (AA) [2]; 100 μl SC once 14 days before induction): 78%
- suppression of inflammation on day of peak disease (adjuvant arthritis (AA) [2]; 500 μl SC once 14 days before induction): 90%
- suppression of inflammation (adjuvant arthritis (AA) [2]; 500 μl, two further experiments): 96% and 91%
- % Inhibition (100 μl) of the inflammation of adjuvant arthritis (adjuvant arthritis (AA) [1]): 78%
- % Incidence of disease [3]: 50.0%
- effect on EAE clinical parameters (in words) [3]: beneficial effect on all the clinical parameters
- Mean Onset of disease (Day No.) ([3]; rats without EAE counted as 25 days): 18.6 Day No.
- Disease duration ([3]; rats without EAE counted as zero): 2.0 days
- GMS (group mean score) ([3]; scale 0-5): 0.22
- MMS (mean maximal score) ([3]; scale 0-5): 0.88
- % Activity GMS ([3]; vs non-treated control): 77.1%
- % Activity Incidence ([3]; vs non-treated control): 33.3%
- % Activity MMS ([3]; vs non-treated control): 63%
- % Activity GMS [3, 4]: 77.1%
- % Activity MMS [3, 4]: 63.0%

Structure (SMILES): CCCCCCCC/C=C\CCCCCCCC(=O)O [oleic acid, cis-9-octadecenoic acid, reference compound]
- effect on inflammation of adjuvant arthritis (in words) (adjuvant arthritis (AA) [1]; Lewis rats, Example 1): no effect
